Results reported in patent publication US20050153992A1, “Pyrrolopyrimidine thion derivatives” (TEIJIN PHARMA LIMITED, priority 2003, published 2005).

What follows are molecules tested against recombinant human GSK-3β (Homo sapiens, UniProt P49841) (assay: Determination of Inhibition of GSK-3 Activity (phospho-glycogen synthase peptide-2, [γ-33P]ATP, scintillation counting)). Details: 20 μM ATP, 20 minutes at room temperature; read-out: GSK-3 inhibitor activity values (IC50 values).
Type: biochemical
Protocol: Determination of Inhibition of GSK-3 Activity
The reaction was initiated by adding 25 μL of phospho-glycogen synthase peptide-2 substrate solution [containing 6 μM phospho-glycogen synthase peptide-2, 20 μM ATP, 16 mM MOPS buffer (pH 7.0), 0.2 mM EDTA, 20 mM magnesium acetate, 0.1 μ Ci[γ-^33P]ATP (relative activity: approximately 110 TBq/mmol)] to 5 μL of each test compound using 5% dimethylsulfoxide as a solvent, and further adding 20 μL of GSK-3β enzyme solution [containing 10 mU recombinant human GSK-3β, 20 mM MOPS buffer (pH 7.0), 1 mM EDTA, 0.1% polyoxyethylene lauryl ether (23 Lauryl Ether; Brij 35), 5% glycerol, and 0.1% β-mercaptoethanol. After 20 minutes at room temperature, the reaction was terminated by the addition of the equivalent amount of 200 mM phosphoric acid solution. 90 μL of the reaction product was spotted onto a multiscreen PH plate (manufactured by Millipore) and washed with 100 mM phosphoric acid solution. The plate was dried, and 30 μL of MicroScint-O (manufactured by Packard BioScience) was added thereto. To evaluate inhibitory activity, cpm was counted using a scintillation counter. Here, Phospho GS Peptide 2 is an amino acid peptide having the following sequence: […]P)-Glu-Asp-Glu- Glu-Glu.
GSK-3 inhibitor activity values (IC50 values) of the compounds according to the present invention were measured by the method described above. As a result, inhibition activity of IC50<100 nM was confirmed in compounds of compound numbers 1, 35, 36, 37, 123, 157, 158, 160, 193, 234, and 263.

Sequence of recombinant human GSK-3β (P49841 whole entry): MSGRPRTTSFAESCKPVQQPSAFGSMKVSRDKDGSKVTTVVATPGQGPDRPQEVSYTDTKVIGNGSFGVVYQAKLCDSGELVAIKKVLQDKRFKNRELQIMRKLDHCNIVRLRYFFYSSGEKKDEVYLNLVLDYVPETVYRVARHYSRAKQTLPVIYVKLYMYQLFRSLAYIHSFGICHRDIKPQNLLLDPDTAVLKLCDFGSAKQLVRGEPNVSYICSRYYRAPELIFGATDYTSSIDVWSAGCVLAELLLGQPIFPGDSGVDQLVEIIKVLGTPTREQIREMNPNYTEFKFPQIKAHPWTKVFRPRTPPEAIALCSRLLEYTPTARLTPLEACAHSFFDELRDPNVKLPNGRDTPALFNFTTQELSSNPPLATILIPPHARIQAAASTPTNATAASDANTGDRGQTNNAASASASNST

| IC50 [nM] | Structure (SMILES) |
| --- | --- |
| < 100 | O=C(NCCn1c(-c2sccc2Cl)c(I)c2nc[nH]c(=S)c21)c1ccc(F)cc1 [Compound 1, N-{2-[6-(3-chloro(2-thienyl))-7-iodo-4-thioxo(3-hydropyrrolo[3,2-d]pyrimidin-5-yl)]ethyl}(4-fluorophenyl)carboxyamide] |
| < 100 | S=c1[nH]cnc2c(I)c(-c3sccc3Cl)n(CCNc3ncnc4ccccc34)c12 [Compound 37, 6-(3-chloro(2-thienyl))-7-iodo-5-[2-(quinazolin-4-ylamino)ethyl]-3-hydropyrrolo[3,2-d]pyrimidin-4-thione] |
| < 100 | O=C(NCCn1c(-c2sccc2Cl)c(-c2cccnc2)c2nc[nH]c(=S)c21)C(F)(F)F [Compound 123] |
| < 100 | O=C(NCCn1c(-c2sccc2Cl)c(Cl)c2nc[nH]c(=S)c21)c1ccc(F)cc1 [Compound 157] |
| < 100 | O=C(NCCn1c(-c2sccc2Cl)c(Br)c2nc[nH]c(=S)c21)c1ccc(F)cc1 [Compound 158] |
| < 100 | Nc1c(-c2sccc2Cl)n(CCNC(=O)c2ccc(F)cc2)c2c(=S)[nH]cnc12 [Compound 160, N-{2-[7-amino-6-(3-chloro(2-thienyl))-4-thioxo(3-hydropyrrolo[3,2-d]pyrimidin-5-yl)]ethyl}(4-fluorophenyl)carboxyamide] |
| < 100 | O=C(NCCn1c(-c2sccc2Cl)c(NC(=O)c2ccccc2)c2nc[nH]c(=S)c21)c1ccc(F)cc1 [Compound 193, N-{2-[6-(3-chloro(2-thienyl))-7-(phenylcarbonylamino)-4-thioxo(3-hydropyrrolo[3,2-d]pyrimidin-5-yl)]ethyl}(4-fluorophenyl)carboxyamide] |
| < 100 | CCn1nc(C)cc1C(=O)NCCn1c(-c2sccc2Cl)c(I)c2nc[nH]c(=S)c21 [Compound 234, N-{2-[6-(3-chloro(2-thienyl))-7-iodo-4-thioxo(3-hydropyrrolo[3,2-d]pyrimidin-5-yl)]ethyl}(1-ethyl-3-methylpyrazol-5-yl)carboxyamide] |
